Test [1] has as its system Rattus norvegicus. Briefly: Inhibition of d-amphetamine induced stereotypy in rats; i.p. treatment 1 hr before amphetamine. Type of test: functional.
For test [2], the system named is Rattus norvegicus. Nature of the test: Inhibition of d-amphetamine induced stereotypy in rats; i.p. treatment 24 hr before amphetamine. Type of test: functional.
Test [3] deals with Rattus norvegicus. Briefly: Inhibition of d-amphetamine induced stereotypy in rats; i.p. treatment 5 hr before amphetamine. Type of test: functional.
The species named for test [4] is Rattus norvegicus. Nature of the test: animal or person. The note with it: ip.
The species named for test [5] is Rattus norvegicus. Briefly: animal or person. The note with it: ip. This is another data set of the same source.
Test [6] is filed under the species Rattus norvegicus. Briefly: animal or person. The note with it: ip. This is another data set of the same source.
The mark [7] stands for this setting: Rattus norvegicus, ip, read-out: ED50.

Bounds are passed on as bounds.

For `COc1ccc(/C=C/CCN2CC[C@@H]3[C@@H](C2)c2cc(F)ccc2N3c2ccc(F)cc2)cc1`, the ED50 in the test on Rattus norvegicus [1] (setting [7]) is greater than 3.2 mg/kg; with Rattus norvegicus [2] (setting [7]), roughly 0.32 mg/kg; in the test with Rattus norvegicus [3] (setting [7]), roughly 0.32 mg/kg.

With `Fc1ccc(/C=C/CCN2CC[C@@H]3[C@@H](C2)c2cc(F)ccc2N3c2ccc(F)cc2)cc1`, the figures for the ED50 with Rattus norvegicus [1] (setting [7]), with Rattus norvegicus [2] (setting [7]) and with Rattus norvegicus [3] (setting [7]) were greater than 1 mg/kg, 0.57 mg/kg and 0.57 mg/kg, respectively.

On to `OC(CCCN1CC[C@@H]2[C@@H](C1)c1ccccc1N2c1ccc(F)cc1)c1ccc(F)cc1` (some centres not stated), for which the figures for the median effective dose (ED50) in the test on Rattus norvegicus [1] (setting [7]), with Rattus norvegicus [2] (setting [7]) and with Rattus norvegicus [3] (setting [7]) were roughly 0.32 mg/kg, 0.032 mg/kg and 0.032 mg/kg, respectively.

On to `OCCCCN1CC[C@@H]2[C@@H](C1)c1cc(F)ccc1N2c1ccc(F)cc1`, for which the 50% effective dose (ED50) in the test with Rattus norvegicus [1] (setting [7]) is 0.03 mg/kg; with Rattus norvegicus [2] (setting [7]), roughly 1 mg/kg; in the test on Rattus norvegicus [3] (setting [7]) it was 0.009 mg/kg.

As to `Fc1ccc(N2c3ccc(F)cc3[C@@H]3CNCC[C@H]32)cc1`, the ED50 in the test on Rattus norvegicus [1] (setting [7]) and in the test on Rattus norvegicus [3] (setting [7]) was greater than 3.2 mg/kg each time.

`CCN1CC[C@@H]2[C@@H](C1)c1cc(F)ccc1N2c1ccc(F)cc1`: the ED50 is 0.14 mg/kg with Rattus norvegicus [1] (setting [7]), greater than 10 mg/kg in the test on Rattus norvegicus [2] (setting [7]) and 0.18 mg/kg in the test on Rattus norvegicus [3] (setting [7]).

On to `OC(CCCN1CC[C@H]2[C@@H](C1)c1ccccc1N2c1ccccc1)c1ccc(F)cc1` (some centres not stated), for which the ED50 in the test on Rattus norvegicus [1] (setting [7]) and in the test on Rattus norvegicus [3] (setting [7]) was greater than 32 mg/kg each time.

For the molecule `OC(CCCN1CC[C@H]2[C@@H](C1)c1cc(F)ccc1N2c1ccc(F)cc1)c1ccc(F)cc1` (some centres not stated), the ED50 with Rattus norvegicus [1] (setting [7]) was determined as 22 mg/kg; with Rattus norvegicus [2] (setting [7]), 9.1 mg/kg; in the test on Rattus norvegicus [3] (setting [7]) it was 1.1 mg/kg.

On to `CN1CC[C@H]2[C@@H](C1)c1ccccc1N2c1ccccc1`, for which the ED50 with Rattus norvegicus [1] (setting [7]) and with Rattus norvegicus [3] (setting [7]) was greater than 32 mg/kg each time.

On to `c1ccc(CN2CC[C@H]3[C@@H](C2)c2ccccc2N3c2ccccc2)cc1`, for which the ED50 with Rattus norvegicus [1] (setting [7]) and with Rattus norvegicus [3] (setting [7]) was greater than 32 mg/kg throughout.

Consider `OC(CCCN1CC[C@@H]2[C@@H](C1)c1cc(F)ccc1N2c1ccc(F)cc1)c1ccc(F)cc1` (some centres not stated), for which the ED50 in the test on Rattus norvegicus [1] (setting [7]) was determined as 0.41 mg/kg; with Rattus norvegicus [2] (setting [7]), 0.03 mg/kg; in the test on Rattus norvegicus [3] (setting [7]), 0.03 mg/kg.

`COc1ccc(C(O)CCCN2CC[C@@H]3[C@@H](C2)c2cc(F)ccc2N3c2ccc(F)cc2)cc1` (some centres not stated): the median effective dose (ED50) came out at 0.36 mg/kg in the test with Rattus norvegicus [1] (setting [7]), 0.1 mg/kg in the test with Rattus norvegicus [2] (setting [7]) and 0.01 mg/kg with Rattus norvegicus [3] (setting [7]).

Take `CN1CC[C@@H]2[C@@H](C1)c1cc(F)ccc1N2c1ccc(F)cc1`: the ED50 is 0.14 mg/kg in the test on Rattus norvegicus [1] (setting [7]), greater than 3.2 mg/kg in the test on Rattus norvegicus [2] (setting [7]) and 0.23 mg/kg with Rattus norvegicus [3] (setting [7]).

Consider `c1ccc(N2c3ccccc3[C@@H]3CNCC[C@@H]32)cc1`, for which the median effective dose (ED50) with Rattus norvegicus [1] (setting [7]) and in the test with Rattus norvegicus [3] (setting [7]) was greater than 32 mg/kg each time.

With `O=C(CCCN1CC[C@@H]2[C@@H](C1)c1cc(F)ccc1N2c1ccc(F)cc1)c1ccc(F)cc1`, the median effective dose (ED50) was greater than 1 mg/kg in the test on Rattus norvegicus [1] (setting [7]), 0.03 mg/kg with Rattus norvegicus [2] (setting [7]) and 0.1 mg/kg with Rattus norvegicus [3] (setting [7]).

Turning to `OC(CCCN1CC[C@@H]2[C@@H](C1)c1cc(F)ccc1N2c1ccc(F)cc1)c1ccccc1` (some centres not stated), the ED50 in the test on Rattus norvegicus [1] (setting [7]), in the test on Rattus norvegicus [2] (setting [7]) and in the test on Rattus norvegicus [3] (ip) was 0.18 mg/kg in each case.

As to `OC(CCCN1CC[C@@H]2[C@@H](C1)c1cc(F)ccc1N2c1ccccc1)c1ccc(F)cc1` (stereo in doubt; 24), the figures for the median effective dose (ED50) in the test on Rattus norvegicus [1], in the test with Rattus norvegicus [2] and in the test with Rattus norvegicus [3] were 0.23 mg/kg, 0.11 mg/kg and 0.08 mg/kg, respectively.

As for `OC(CCCN1CC[C@@H]2[C@@H](C1)c1cc(F)ccc1N2c1ccccc1)c1ccc(F)cc1` (stereo in doubt; 25), the ED50 was 0.1 mg/kg with Rattus norvegicus [1], 0.032 mg/kg in the test on Rattus norvegicus [2] and roughly 0.032 mg/kg in the test on Rattus norvegicus [3].

Turning to `CN1CC[C@@H]2Nc3ccccc3[C@@H]2C1` [CARBIDINE], the ED50 in the test with Rattus norvegicus [1] (setting [7]) and in the test with Rattus norvegicus [3] (setting [7]) was greater than 32 mg/kg each time.

As for `OC(CCCN1CCc2c(c3cc(F)ccc3n2-c2ccc(F)cc2)C1)c1ccc(F)cc1` (configuration not stated) [FLUTROLINE], the ED50 with Rattus norvegicus [1] (setting [7]) amounted to 0.1 mg/kg; in the test on Rattus norvegicus [2] (setting [7]), 0.32 mg/kg; in the test on Rattus norvegicus [3] (setting [7]) it was 0.1 mg/kg.

On to `O=C(CCCN1CCC(O)(c2ccc(Cl)cc2)CC1)c1ccc(F)cc1` [HALOPERIDOL], for which the 50% effective dose (ED50) in the test listed under Rattus norvegicus [4] is 0.1 mg/kg; in the test listed under Rattus norvegicus [5] it was greater than 3.2 mg/kg; in the test filed under Rattus norvegicus [6] it was 0.1 mg/kg.

For orientation: ED50 means the dose that gives a 50% effect, or the effect in half of the subjects.

Values taken from ChEMBL document CHEMBL1123474, “Neuroleptics from the 4a,9b-cis- and 4a,9b-trans-2,3,4,4a,5,9b-hexahydro-1H-pyrido[4,3-b]indole series. 2” (J Med Chem, 1986).
